In the supplement of paper PMC10307832:

Compound: O=C(NCCCNc1nc(Nc2cccc(NC(=O)N3CCCC3)c2)ncc1I)c1cccs1 [BX 795]
Assay: relative viability (nuclei count vs DMSO), 5 days (fraction); higher = more cells survive
In short: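 Hoechst staining, done together with fixation and permeabilisation, marked nuclei for 4× imaging and MetaXpress counting. This followed 5 days without medium change after lung cancer cell lines, kept overnight at 37 °C in 1536-well plates, were pinned with five library-drug doses (not always all listed) spaced by √10 on vehicle-anchored plates. Viability is the ratio of treated-well to vehicle-well nuclei, expressed as a median across plates. Plates passed only at control CV below 25% with at least one doubling.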

Row | Cell Line | relative viability (0.04 µM) | relative viability (0.1265 µM) | relative viability (0.4 µM) | relative viability (1.265 µM)
1 | BEN | 0.907 | 1.12 | 0.952 | 1.05
2 | NCI-H1993 | 1.05 | 0.983 | 0.926 | 0.893
3 | EKVX | 0.934 | 0.975 | 0.883 | 0.93
4 | A-427 | 1.08 | 0.905 | 0.998 | 0.808
5 | A549 | 1.01 | 1.08 | 0.97 | 0.671
6 | COR-L23 | 1.04 | 1.04 | 1.05 | 0.669
7 | NCI-H1437 | 0.978 | 1.05 | 1.03 | 1.01
8 | PC-3 [JPC-3] | 1.07 | 0.979 | 1.04 | 1
9 | LCLC-97TM1 | 1.11 | 1.02 | 1.1 | 0.716
10 | NCI-H1793 | 1.09 | 0.917 | 1.05 | 0.808
11 | HCC-15 | 0.967 | 1.05 | 0.973 | 0.804
12 | SK-LU-1 | 0.91 | 1.18 | 0.629 | 0.836
13 | NCI-H358 | 0.955 | 0.905 | 0.76 | 0.513
14 | NCI-H1975 | 0.977 | 1.07 | 0.858 | 0.806
15 | NCI-H1666 | 1.06 | 1.03 | 1.01 | 0.925
16 | H3255 | 0.985 | 1.07 | 1.02 | 0.949
17 | COR-L 105 | 0.985 | 0.868 | 0.776 | 0.661
18 | NCI-H1355 | 1.01 | 1.01 | 1.02 | 0.873

Row | Cell Line | relative viability (0.04 µM) | relative viability (0.1265 µM) | relative viability (0.4 µM) | relative viability (1.265 µM)
19 | NCI-H2009 | 0.981 | 0.976 | 0.996 | 0.782
20 | HCC-827 | 1 | 1.02 | 1.04 | 1.01
21 | NCI-H2085 | 1.01 | 1.03 | 0.981 | 0.97
22 | RERF-LC-KJ | 1.06 | 0.949 | 1.02 | 0.908
23 | ChaGo-K-1 | 0.947 | 1.06 | 0.959 | 0.981
24 | NCI-H1734 | 1.06 | 1.02 | 0.908 | 0.668
25 | LK-2 | 0.998 | 1.02 | 0.863 | 0.929
26 | NCI-H522 | 0.92 | 0.877 | 0.921 | 1.01
27 | NCI-H1395 | 0.839 | 0.858 | 0.586 | 0.633
28 | NCI-H661 | 1.09 | 0.994 | 1.03 | 1.04
29 | LC-2-ad | 1.04 | 0.924 | 0.912 | 0.661
30 | SW 900 | 0.856 | 0.759 | 1.04 | 0.813
31 | LU99A | 0.946 | 0.894 | 0.84 | 0.778
32 | HCC-78 | 1.1 | 1 | 1.01 | 0.933
33 | UMC-11 | 0.896 | 0.995 | 0.802 | 0.675
34 | NCI-H2405 | 1.06 | 0.963 | 0.988 | 0.89
35 | HARA | 0.921 | 0.81 | 0.975 | 0.947
36 | NCI-H322M | 1.09 | 0.964 | 1.12 | 1.25
